# In patent US11382946B2, “Multi-functional peptides and use thereof” (NOVACELL TECHNOLOGY INC., priority 2019, dated 2022):
# Non-standard residues stand in square brackets, D forms with d. Residues, ends and D or L forms follow the SMILES beside them. 2Nal = N[C@@H](Cc1ccc2ccccc2c1)C(=O)O; Nle = CCCC[C@H](N)C(=O)O
# Tests used:
# S. aureus = assay type: cell-based, Staphylococcus aureus; details: 18 h
# Description: (§1) The present inventors evaluated […] in order to select peptides showing excellent performance among various peptides synthesized in the Example 1. Particularly, in order to measure the antimicrobial activity of the peptide, after preparing Gram-positive bacteria Staphylococcus aureus (S. aureus) and Gram-negative bacteria Pseudomonas aeruginosa (P. aeruginosa), the bacteria were plated on agar plate medium by fourth streaking and cultured overnight in a 36° C. incubator. The next day, the strain colonies produced on the agar plate medium were inoculated into 3 ml nutrient medium and cultured overnight in a stirring incubator at 36° C. and 220 rpm. The next day, the bacteria were diluted to measure absorbance at 600 nm, adjusted to OD600=0.5, and diluted in a 1:100 ratio in nutrient medium. Then, the peptides prepared in the above Examples were serially diluted in concentrations of 0, 1.25, 2.5, 5, 10, and 20 μM in a nutrient medium to prepare 1 ml each, and then inoculated with 1 ml of the diluted bacteria. Subsequently, the mixture was stirred under conditions of 36° C. and 220 rpm, and incubated for 18 hours, and absorbance at 600 nm was measured.
# (§2) As a result, 20 peptides showing high antibacterial activity against P. aeruginosa and S. aureus) were selected (FIGS. 2 and 3).
# FPR2 = biological target: T1, FPR2 (Homo sapiens, UniProt P25090); assay: FPR2 activation by intracellular calcium ion increase (Fura-2/AM) in FPR2-RBL cells; assay type: cell-based; details: RBL cells overexpressing FPR2
# T1 construct: expressed in transfected cells; host or cells: RBL cells overexpressing FPR2 (FPR2-RBL)
# T1 sequence (P25090 1-351): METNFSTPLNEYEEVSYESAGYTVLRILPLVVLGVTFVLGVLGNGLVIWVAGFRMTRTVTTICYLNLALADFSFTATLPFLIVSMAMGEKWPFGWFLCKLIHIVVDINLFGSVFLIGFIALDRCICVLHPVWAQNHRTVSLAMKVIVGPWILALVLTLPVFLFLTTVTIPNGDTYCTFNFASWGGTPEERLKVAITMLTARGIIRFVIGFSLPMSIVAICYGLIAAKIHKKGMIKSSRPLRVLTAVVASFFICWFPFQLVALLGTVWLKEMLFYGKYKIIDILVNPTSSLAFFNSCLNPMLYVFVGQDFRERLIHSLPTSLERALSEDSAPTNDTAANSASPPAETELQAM
# Description: The present inventors observed a change in calcium ion permeability of the candidate peptides according to an embodiment of the present invention in order to determine whether they can activate the immunomodulatory function in a body or not. Particularly, intracellular concentration of calcium ions was measured to confirm that the peptide activates FPR2. RBL cells that do neither express FPR1 nor FPR2, RBL cells overexpressed FPR1 (FPR1-RBL) and RBL cells that overexpressed FPR2 (FPR2-RBL) were used and Fura-2/AM which is a fluorophore having high binding affinity to calcium in order to measure intracellular calcium ion level sensitively. For this purpose, cells were cultured in RPMI medium supplemented with 10% fetal bovine serum and harvested by centrifugation in log phase (mid-log phase, 1-3×10^7 cells/ml), and then washed several times with RPMI medium not supplemented with fetal bovine serum, and then the cells were resuspended in RPMI medium to 1×10^7 cells/ml. Subsequently, a final 3 μM concentration of Fura-2/AM was added and the cells were incubated for 45 minutes in a 37° C., 5% CO2 incubator. After the appropriated time, the cells are harvested, washed again with RPMI medium, and then suspended in the appropriate amount of RPMI medium supplemented with 250 μM of sulfinpyrazone, in order to prevent loss of Fura-2 entering the cells. About 2×10^6 cells were taken each time, harvested by rapid centrifugation, and resuspended in 1 ml of a Locke solution without addition of calcium ions and EGTA added, and the ratio of absorbance at two wavelengths of 340 nm and 380 nm on a spectrophotometer were monitored by treating the peptides according to an embodiment of the present invention at different concentrations (1 μM, 0.1 μM, and 0.01 μM) at intervals of about 1 minute, and then the difference in absorbance at two wavelengths was investigated. It was converted to the concentration of free calcium ions into cells according to the method of Grynkiewicz.
# P. aeruginosa = assay type: cell-based, Pseudomonas aeruginosa; details: 18 h
# Description: as §1, §2
Compound,"Antimicrobial activity (IC50, μg/ml) S. aureus (S. aureus) [µg/mL]",EC50 (FPR2) [nM],"Antimicrobial activity (IC50, μg/ml) P. aeruginosa (P. aeruginosa) [µg/mL]"
"CCCC[C@H](NC(=O)[C@H](CCCNC(=N)N)NC(=O)[C@H](Cc1c[nH]c2ccccc12)NC(=O)[C@H](Cc1c[nH]c2ccccc12)NC(=O)[C@H](CCCNC(=N)N)NC(=O)[C@H](Cc1ccc2ccccc2c1)NC(C)=O)C(=O)N[C@@H](Cc1c[nH]c2ccccc12)C(=O)N[C@@H](Cc1c[nH]c2ccccc12)C(=O)N[C@@H](CCCNC(=N)N)C(=O)N[C@@H](Cc1c[nH]c2ccccc12)C(=O)N[C@H](CCSC)C(N)=O [Peptide V23_Ac, Ac-ZRWWR-Nle-WWRWm-NH2] (Ac-[2Nal]RWWR[Nle]WWRW[dM]-NH2)",13.3,61.3,>50
"CSCC[C@@H](NC(=O)[C@@H](NC(=O)[C@H](CCCNC(=N)N)NC(=O)[C@H](Cc1c[nH]c2ccccc12)NC(=O)[C@H](Cc1c[nH]c2ccccc12)NC(=O)[C@H](CCCNC(=N)N)NC(=O)[C@H](Cc1ccc2ccccc2c1)NC(C)=O)C(C)C)C(N)=O [Peptide V21_Ac, Ac-ZRWWRVm-NH2] (Ac-[2Nal]RWWRV[dM]-NH2)",9.4,92.3,>50
